# Source: US6683103B2, “Sulfonamides for treatment of endothelin-mediated disorders” (Texas Biotechnology Corporation, priority 1997, dated 2004)
# Like-named read-outs stand apart in the source and are kept apart here. Marks after values point to notes of the source that are not given here.
# Columns and labels:
# [1] = system: ETB receptors; conditions: tissues in which ETB receptors predominate; cited from earlier work
# [2] = biological target: ETA receptor; conditions: cited from earlier work
# [3] = Solubility in aqueous media
# [4] = Stability of solutions, percent remaining by HPLC; assay type: physicochemical
# [5] = biological target: T1, human ETB receptor (Homo sapiens, UniProt P24530); test: Binding Test #2: inhibition of 125I-ET-1 binding to ETB receptors (transfected COS7 cell membranes); conditions: Table 1; † incubation at 24° C.; read-out: ETB
# T1 construct: expressed in transfected cells; host or cells: COS7 cells
# T1 sequence (P24530 27-442): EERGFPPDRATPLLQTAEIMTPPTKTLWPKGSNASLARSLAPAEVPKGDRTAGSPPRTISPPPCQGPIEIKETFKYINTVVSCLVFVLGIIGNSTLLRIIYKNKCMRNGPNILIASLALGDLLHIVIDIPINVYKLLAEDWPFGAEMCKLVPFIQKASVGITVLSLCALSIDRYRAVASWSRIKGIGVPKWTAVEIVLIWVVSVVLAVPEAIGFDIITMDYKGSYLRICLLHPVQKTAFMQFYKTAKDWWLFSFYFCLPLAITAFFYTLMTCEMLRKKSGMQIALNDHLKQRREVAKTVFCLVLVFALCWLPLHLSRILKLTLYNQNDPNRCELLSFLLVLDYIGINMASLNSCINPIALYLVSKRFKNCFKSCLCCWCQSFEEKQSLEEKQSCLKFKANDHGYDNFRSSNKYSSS
# Procedure, shortened: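 Competition with 125I-ET-1 for binding to membranes from COS7 cells transfected with human ETB receptor, used at 1 μg/50 μl binding buffer. Membranes prepared in HEPES pH 7.4 with aprotinin, including a DNase/MnCl2 step at 37 °C for 30 min.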
# [6] = system: DOCA-salt hypertensive rat; test: Deoxycorticosterone acetate (DOCA)-salt hypertensive rat model; assay type: in vivo
# Protocol: E. Deoxycorticosterone Acetate (DOCA)-Salt Hypertensive Rat Model for Assessing in vivo Activity of Selected Compounds
# Selected compounds disclosed herein have been tested for activity in the deoxycorticosterone acetate (DOCA)-salt hypertensive rat model. To perform these tests, silastic MDX4-4210 elastomer implants containing 47 mg (DOCA) were prepared according to the method of Ornmsbee et al. ((1973) the J. Pharm. Sci. 62:255-257). Briefly, DOCA is incorporated into silicon rubber implants for sustained release. To prepare the implants the DOCA is incorporated into unpolymerized silicone rubber, catalyst is added and the mixture is cast in a hemicylindrical shape.
# Sprague Dawley rats (7-8 weeks old) were unilaterally nephrectomized under ketamine anesthesia and a DOCA-implant was placed on the left lateral dorsal abdomen of the animal. The rats were allowed to recover for three weeks. During recovery they were permitted free access to normal rat chow and 0.9% NaCl drinking solution in place of drinking water. The rats develop hypertension within 3 weeks.
# All animals were used in the tests between 21 and 30 days post surgery. The mean arterial blood pressure in these animals ranged from 165-200 mm Hg.
# On the day of experimentation, catheters were inserted under brevital anesthesia into the right femoral artery for measurement of blood pressure, and into the right femoral vein for administration of a selected compound. The animals were placed in a restrainer and allowed to recover for a minimum of 60 min or until a steady mean arterial blood pressure was recorded. At that time, the selected compound or control vehicle was administered either intravenously, as a 60 minute infusion, or orally by oral gavage. Blood pressure was recorded continuously for a further 10 hrs.
# [7] = biological target: T2, human ETA receptors (Homo sapiens, UniProt P25101); test: Binding Test #1: inhibition of 125I-ET-1 binding to ETA receptors (TE 671 cell membranes); conditions: for IC50: † incubation at 24° C., read-out: ETA
# T2 construct: endogenous in cells; host or cells: TE 671 cells (ATCC HTB 139)
# T2 sequence (P25101 21-427): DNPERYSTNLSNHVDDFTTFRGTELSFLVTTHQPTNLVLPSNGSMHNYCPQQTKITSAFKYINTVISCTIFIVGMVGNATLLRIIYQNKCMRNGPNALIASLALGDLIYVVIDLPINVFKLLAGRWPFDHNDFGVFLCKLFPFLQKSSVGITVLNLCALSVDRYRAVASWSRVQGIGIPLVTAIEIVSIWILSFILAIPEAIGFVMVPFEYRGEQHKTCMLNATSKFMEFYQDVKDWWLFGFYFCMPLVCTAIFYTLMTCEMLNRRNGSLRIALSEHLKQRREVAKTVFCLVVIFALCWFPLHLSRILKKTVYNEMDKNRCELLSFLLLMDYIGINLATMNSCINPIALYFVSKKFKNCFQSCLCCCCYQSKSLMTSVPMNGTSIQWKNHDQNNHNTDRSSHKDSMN
# Procedure, shortened: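 Radioligand competition in triplicate: ¹²⁵I-endothelin-1 displaced by test compound (1 nM–100 μM final) from ETA-bearing TE 671 cell membranes in HEPES pH 7.4 binding buffer with NaCl, MgCl2 and bacitracin. Incubation 16–18 h at 4 °C (or at 24 °C); 80 nM ET-1 defines nonspecific binding; pellet radioactivity gives percent inhibition.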
# [8] = system: Pulmonary Hypertension model; test: Pulmonary hypertension model, in vivo efficacy; design: species or system rat; key to in vivo Efficacy: ++ effective at 5 mg/kg; − no effect at 5 mg/kg; + effective at 15 mg/kg
# Protocol: As used herein, efficacy refers to the maximal effect that can be produced by a compound. Efficacy can be determined by methods known to those of skill in the art. For example, it can be determined by the properties of the compound and its receptor-effector system and is reflected in the plateau of the concentration-effect curve. In vivo efficacy refers to efficacy which is determined in an animal model. For example, in vivo efficacy of the compounds described herein can be determined by amelioration of hypoxia-induced pulmonary hypertension in rat. In this context, in vivo efficacy refers to the ability of a compound to restore an elevated pulmonary artery pressure to a normal value. […] J. Physiol. […] The in vivo activity was measured in a pulmonary hypertension model and is a measure of the activity of the compounds at selected dosages.
# [9] = Oral half-life and peak plasma levels in rat; assay type: in vivo
# Text: As used herein, bioavailability refers to the rate and extent of absorption. Methods for determining bioavailability are well known to those of skill in the art. For example, bioavailability of any of the compounds described herein can be determined empirically by administration of the compound to an animal, followed by taking blood samples over time and measuring the blood concentration of the compound. In vivo half life (t½) is defined as the time it takes for the concentration of the compound in the blood to be reduced by one-half. Estimations of the area under the curve for intravenous administration can be used to estimate the area under the curve for oral administration, yielding bioavailability data. See, e.q., Milo Gibal (1991) Biopharmaceutics and Pharmacology, 4th edition (Lea and Sediger).
# Table 4 lists oral half-life, bioavailability, and in vivo activity of selected exemplary compounds. The in vivo activity was measured in a pulmonary hypertension model and is a measure of the activity of the compounds at selected dosages.
# [10] = Papp (Table 4); assay type: in vitro ADME
# [11] = system: isolated vascular strips; conditions: contractile agent in isolated vascular strips; cited from earlier work
molecule,measurement,setting,value
cyclo(D-Glu-L-Ala-allo-D-lle-L-Leu-D-Trp) [BE-18257B],concentration up to which binding is not inhibited,[1],> 100 µM
same,IC50,[2]; aortic smooth muscle,1400 nM
same,IC50,[2]; cultured aortic smooth muscle cells,500 nM
same,IC50,[2]; ventricle membranes,800 nM
Cc1cc2c(cc1CC(=O)c1sccc1S(=O)(=O)Nc1onc(C)c1Cl)OCO2.[Na] [sodium],solubility compared to the neutral compound,[3],improved solubility over the neutral compound
same,percent remaining (HPLC),"[4]; 0.49 mg/mL, 1.5% PVP + 3.0% PG, 24 h",90.0%
same,percent remaining (HPLC),"[4]; 0.51 mg/mL, 5% dextrose, 24 h",99.4%
same,percent remaining (HPLC),"[4]; 0.51 mg/mL, normal saline, 24 h",96.9%
same,percent remaining (HPLC),"[4]; 0.57 mg/mL, 0.75% PVP + 1.5% PG, 24 h",74.4%
same,percent remaining (HPLC),"[4]; 20 mg/mL, 5% dextrose + 5% PG + citrate buffer, 0.3% w/v (pH 7.5), 26 h (4° C.)",97.2%
same,percent remaining (HPLC),"[4]; 20 mg/mL, 5% dextrose + 5% buffer (pH 7.0), 24 h",92.6%
same,percent remaining (HPLC),"[4]; 20 mg/mL, 5% dextrose + K-phosphate buffer, 2.5% w/v (pH 6), 24 h",84.6%
same,percent remaining (HPLC),"[4]; 20 mg/mL, 5% dextrose + K-phosphate buffer, 2.5% w/v (pH 7), 20 h",92.6%
same,percent remaining (HPLC),"[4]; 20 mg/mL, 5% dextrose + K-phosphate buffer, 2.5% w/v (pH 7.5), 24 h",93.4%
same,percent remaining (HPLC),"[4]; 20 mg/mL, 5% dextrose + citrate buffer, 0.3% w/v (pH 7.5), 27 h (4° C.)",96.6%
same,percent remaining (HPLC),"[4]; 20 mg/mL, 5% dextrose + citrate buffer, 0.3% w/v (pH 8), 21 h",92.9%
same,percent remaining (HPLC),"[4]; 20 mg/mL, 5% dextrose, 24 h (13° C.)",93.7%
same,percent remaining (HPLC),"[4]; 20 mg/mL, 5% dextrose, 25 h (10° C.)",93.7%
same,percent remaining (HPLC),"[4]; 20 mg/mL, 10% dextrose + 10% PG + Na-phosphate buffer, 0.3% w/v (pH 7.5), 24 h",90.7%
same,percent remaining (HPLC),"[4]; 20 mg/mL, 10% dextrose, 24 h",93.4%
same,percent remaining (HPLC),"[4]; 30 mg/mL, 5% dextrose, 24 h",92.2%
same,percent remaining (HPLC),"[4]; 30 mg/mL, 10% dextrose + 10% PG + citrate buffer, 0.3% w/v (pH 7.5), 24 h (4° C.)",98.0%
same,percent remaining (HPLC),"[4]; 30 mg/mL, 20% sorbitol, 24 h",93.2%
same,percent remaining (HPLC),"[4]; 100 mg/mL, 5% dextrose, 6 h",93.0%
same,percent remaining (HPLC),"[4]; 100 mg/mL, 10% dextrose +10% PG + citrate buffer, 0.3% w/v (pH 7.5), 24 h",94.2%
same,percent remaining (HPLC),"[4]; 100 mg/mL, 30% sorbitol, 24 h",93.2%
same,stability compared to the sodium hydrogen phosphate salt,[4]; certain aqueous formulations,as stable as the sodium hydrogen phosphate salt
same,percent remaining (HPLC),"[4]; mg/mL not given, 10% dextrose + 10% PG + Na-phosphate buffer, 0.3% w/v (pH 7.5), 24 h (4° C.)",97.4%
same,percent remaining (HPLC),"[4]; mg/mL not given, 10% dextrose + 10% PG + Na-phosphate buffer, 0.3% w/v (pH 8), 24 h (4° C.)",96.4%
same,percent remaining (HPLC),"[4]; mg/mL not given, 10% dextrose + 10% PG + citrate buffer, 0.3% w/v (pH 7.4), 24 h (4° C.)",97.6%
same,percent remaining (HPLC),"[4]; mg/mL not given, 10% dextrose + 10% PG, 24 h (4° C.)",97.6%
"Cc1noc(NS(=O)(=O)c2ccsc2CC(O)c2ccc3c(c2)OCO3)c1Cl (stereo not drawn) [N-(4-chloro-3-methyl-5-isoxazolyl)-2-[β-hydroxy(3,4-methylenedioxy)phenylethyl]thiophene-3-sulfonamide]",IC50,[5],16000 nM
same,effect on blood pressure,[6],effective in decreasing blood pressure
same,IC50,[7]; Table 1,53 nM
"CC(=O)c1cc(C)cc(C)c1NC(=O)c1sccc1S(=O)(=O)Nc1onc(C)c1Cl [N-(2-acetyl-4,6-dimethylphenyl)-3-(((4-chloro-3-methyl-5-isoxazolyl)amino)sulfonyl)-2-thiophenecarboxamide]",in vivo Efficacy (footnote e),[8]; 0.3 mg/kg in vivo,^eeffective at 0.3 mg/kg in vivo
same,in vivo Efficacy,[8]; Pulmonary Hypertension model,++^e
same,Peak Plasma Levels,[9]; in vivo,57 µg/mL
same,POt½ in Rat,[9]; oral,8.6 h
same,Papp (cell printed as %),[10],40%
same,ETA/ETB selectivity,[7]; Table 3,34000^∥
same,IC50,[7]; Table 3,0.55 nM
endothelin-1: potent twenty-one amino acid peptide vasoconstrictor,EC50,[11],0.4 nM
